Reference: PubChem BioAssay (NCI)
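Cells were grown in 96-well plates and exposed to each compound for 48 hours at five concentrations; endpoints were interpolated linearly between bracketing concentrations, or set to the highest concentration if not reached. TGI marks complete inhibition of growth.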

Experiments:
Experiment in all cases: growth of human tumour cells (NCI), 48 h
[1] = system: A549 NSCLC
[2] = system: DU-145 prostate
[3] = system: HCT-15 colon
[4] = system: IGROV1 ovarian
[5] = system: MALME-3M melanoma
[6] = system: MDA-N
[7] = system: PC-3 prostate
[8] = system: RPMI-8226 leukemia
[9] = system: SF-295 CNS
[10] = system: SF-539 CNS
[11] = system: SK-OV-3 ovarian

Cc1ccc(N2C(=O)CC(=O)N(NC(=O)C(C)Oc3ccccc3C)C2=S)cc1 (stereo not given)
TGI [1]: > 100 µM
TGI [2]: > 100 µM
TGI [3]: > 100 µM
TGI [4]: > 100 µM
TGI [5]: > 100 µM
TGI [6]: > 100 µM
TGI [7]: > 100 µM
TGI [8]: > 100 µM
TGI [9]: > 100 µM
TGI [10]: > 100 µM
TGI [11]: > 100 µM

O=C(O)c1cc2c(cc1S(=O)(=O)O)C1C(C3C2C2(Cl)C(Cl)=C(Cl)C3(Cl)C2(Cl)Cl)C2(Cl)C(Cl)=C(Cl)C1(Cl)C2(Cl)Cl (stereo not given)
TGI [1]: > 100 µM
TGI [2]: > 100 µM
TGI [3]: > 100 µM
TGI [4]: > 100 µM
TGI [5]: > 100 µM
TGI [6]: > 100 µM
TGI [7]: > 100 µM
TGI [8]: > 100 µM
TGI [9]: 60.2 µM
TGI [10]: 60.3 µM
TGI [11]: > 100 µM

COc1ccc2c(-c3ccc(O)cc3)c(Oc3ccccc3)c(=O)oc2c1
TGI [1]: > 43 µM
TGI [2]: > 50.8 µM
TGI [3]: > 100 µM
TGI [4]: > 62.3 µM
TGI [5]: > 86.3 µM
TGI [6]: > 100 µM
TGI [7]: > 100 µM
TGI [8]: > 100 µM
TGI [9]: > 100 µM
TGI [10]: > 100 µM
TGI [11]: > 100 µM

Cc1ccc(NNc2cc(=O)[nH]c(=O)[nH]2)cc1Cl
TGI [1]: > 100 µM
TGI [2]: > 100 µM
TGI [3]: 22.7 µM
TGI [4]: 27.6 µM
TGI [5]: 31.9 µM
TGI [6]: 28.6 µM
TGI [7]: > 100 µM
TGI [8]: 49.2 µM
TGI [9]: > 100 µM
TGI [10]: 69.4 µM
TGI [11]: > 100 µM

C/C=C/OC1C(C2COC(C)(C)O2)OC2OC(C)(C)OC21 (stereo not given)
TGI [1]: > 100 µM
TGI [2]: > 100 µM
TGI [3]: > 100 µM
TGI [4]: > 100 µM
TGI [5]: > 100 µM
TGI [6]: > 100 µM
TGI [7]: > 100 µM
TGI [8]: > 100 µM
TGI [9]: > 100 µM
TGI [10]: > 100 µM
TGI [11]: > 100 µM

COc1ccc(C2c3cc4c(cc3OC(N3CCOCC3)C2C)OCO4)c(OC)c1 (stereo not given)
TGI [1]: 58 µM
TGI [2]: 54.7 µM
TGI [3]: > 75.9 µM
TGI [4]: > 100 µM
TGI [5]: 36.6 µM
TGI [6]: 5.25 µM
TGI [7]: > 100 µM
TGI [8]: 19.9 µM
TGI [9]: 16.3 µM
TGI [10]: 9.64 µM
TGI [11]: 52.6 µM

O=C1CNc2cc(N3CCN(c4cccc(C(F)(F)F)c4)CC3)ccc2N1
TGI [1]: > 100 µM
TGI [2]: > 100 µM
TGI [3]: > 100 µM
TGI [4]: > 100 µM
TGI [5]: 69.9 µM
TGI [6]: > 100 µM
TGI [7]: > 82.7 µM
TGI [8]: > 67.5 µM
TGI [9]: > 92.3 µM
TGI [10]: > 100 µM
TGI [11]: > 100 µM

CC(=O)NC1CCC(NC(=O)OC(C)(C)C)C(NC(=O)OC(C)(C)C)C1 (stereo not given)
TGI [1]: > 100 µM
TGI [2]: > 100 µM
TGI [3]: > 100 µM
TGI [4]: > 100 µM
TGI [5]: > 100 µM
TGI [6]: > 100 µM
TGI [7]: > 100 µM
TGI [8]: > 100 µM
TGI [9]: > 100 µM
TGI [10]: > 100 µM
TGI [11]: > 100 µM

CC1=NN(C(=O)CC(=O)Nc2cccc(Cl)c2)C(=O)C1N=Nc1ccc(S(=O)(=O)c2ccc(N=NC3C(=O)N(C(=O)CC(=O)Nc4cccc(Cl)c4)N=C3C)cc2)cc1 (stereo not given)
TGI [1]: > 100 µM
TGI [2]: > 100 µM
TGI [3]: > 100 µM
TGI [4]: > 100 µM
TGI [5]: > 100 µM
TGI [6]: > 100 µM
TGI [7]: > 100 µM
TGI [8]: > 100 µM
TGI [9]: > 100 µM
TGI [10]: 55.6 µM
TGI [11]: > 100 µM

CNC(=O)CNC(=O)CCC(=O)N(C)C
TGI [1]: > 100 µM
TGI [2]: > 100 µM
TGI [3]: > 100 µM
TGI [4]: > 100 µM
TGI [5]: > 100 µM
TGI [6]: > 100 µM
TGI [7]: > 100 µM
TGI [8]: > 100 µM
TGI [9]: > 100 µM
TGI [10]: > 100 µM
TGI [11]: > 100 µM
